Test results taken from patent US20160113921A1, “COMBINATION THERAPY COMPRISING OXAZOLIDINONE-QUINOLONES FOR USE IN TREATING BACTERIAL INFECTIONS” (MORPHOCHEM AKTIENGESELLSCHAFT FÜR KOMBINATORISCHE CHEMIE, priority 2013, published 2016).
Converted amounts (≈) assume the structure as drawn. Read-outs that look alike come from different tables or passages of the source. One block for each compound: values may come before it.

Legend:
Assay type in all cases: cell-based
E. faecalis ATCC 29212 = assay: MIC, broth microdilution (CLSI), CAMHB; settings: Enterococcus faecalis
Experimental: (§1) MIC-testing was done immediately after preparation of the dilutions. All tests were done in duplicate and repeated once on a separate occasion.
(§2) 1 mL of the bacterial suspension was transferred into a tube containing 10 mL CAMHB and was vortexed thoroughly. (S. pneumoniae 1 mL in 10 mL CAMHB+5% lysed horse blood). Columns 1-15 of the 96-well plate were inoculated with 5 μL of this suspension (1-15=antibacterial solution, 16=sterile medium without test item).
(§3) Turbidity was read visually with a mirror.

E. faecalis V583 (VanB) = assay: MIC, broth microdilution (CLSI), CAMHB; settings: Enterococcus faecalis
Experimental: as §1, §2, §3

E. faecium DSMZ 2146 = assay: MIC, broth microdilution (CLSI), CAMHB; settings: Enterococcus faecium
Experimental: as §1, §2, §3

[1] = tested on: E. faecium UW 3695 (linezolid and quinolone-resistant); assay: MIC, broth microdilution (CLSI), CAMHB; settings: Enterococcus faecium
Experimental: as §1, §2, §3

S. aureus ATCC 29213 = assay: MIC, broth microdilution (CLSI), CAMHB; settings: Staphylococcus aureus
Experimental: as §1, §2, §3

[2] = tested on: S. aureus ATCC 33593 (MRSA); assay: MIC, broth microdilution (CLSI), CAMHB; settings: Staphylococcus aureus
Experimental: as §1, §2, §3

[3] = tested on: S. aureus NRS-119 (MRSA, linezolid- and quinolone-resistant); assay: MIC, broth microdilution (CLSI), CAMHB; settings: Staphylococcus aureus
Experimental: as §1, §2, §3

[4] = tested on: S. aureus Visa Mu 50 (MRSA, vancomycin intermediate susceptible); assay: MIC, broth microdilution (CLSI), CAMHB; settings: Staphylococcus aureus
Experimental: as §1, §2, §3

S. pneumoniae ATCC 33400 = assay: MIC, broth microdilution (CLSI), CAMHB; settings: Streptococcus pneumoniae
Experimental: as §1, §2, §3

[5] = tested on: S. pneumoniae BAY 19397 (penicillin-, macrolide-, quinolone-resistant); assay: MIC, broth microdilution (CLSI), CAMHB; settings: Streptococcus pneumoniae
Experimental: as §1, §2, §3

[6] = tested on: S. aureus DSM 11823, clone 16 (MSSA, quinolone-resistant); assay: microbe, parasite or virus in culture; settings: Staphylococcus aureus
Experimental: as §1, §2, §3

E. cloacae ATCC 13047 = assay: MIC, broth microdilution (CLSI), CAMHB; settings: Enterobacter cloacae; monosubstance; Ecl ATCC13047; read-out: MIC
Experimental: as §1, §2, §3

[7] = tested on: E. cloacae NRZ-00239 (VIM-1); assay: MIC, broth microdilution (CLSI), CAMHB; settings: Enterobacter cloacae; monosubstance; Ecl NRZ00239; read-out: MIC
Experimental: as §1, §2, §3

E. coli ATCC 25922 = assay: MIC, broth microdilution (CLSI), CAMHB; settings: Escherichia coli; monosubstance; Ec ATCC25922; read-out: MIC
Experimental: as §1, §2, §3

[8] = tested on: E. coli GNS-2601 (ESBL CTX-M-15); assay: MIC, broth microdilution (CLSI), CAMHB; settings: Escherichia coli
Experimental: as §1, §2, §3

[9] = tested on: E. coli NRZ-00302 (metallo β-lactamase NDM-1); assay: MIC, broth microdilution (CLSI), CAMHB; settings: Escherichia coli
Experimental: as §1, §2, §3

[10] = tested on: E. coli NRZ-00401 (metallo β-lactamase VIM-1); assay: MIC, broth microdilution (CLSI), CAMHB; settings: Escherichia coli; monosubstance; Ec NRZ00401; read-out: MIC
Experimental: as §1, §2, §3

K. pneumoniae ATCC 13883 = assay: MIC, broth microdilution (CLSI), CAMHB; settings: Klebsiella pneumoniae; monosubstance; Kp ATCC13883; read-out: MIC
Experimental: as §1, §2, §3

[11] = tested on: K. pneumoniae NRZ-00002 (OXA-48); assay: MIC, broth microdilution (CLSI), CAMHB; settings: Klebsiella pneumoniae; monosubstance; Kp NRZ00002; read-out: MIC
Experimental: as §1, §2, §3

[12] = tested on: K. pneumoniae NRZ-00103 (KPC-2); assay: MIC, broth microdilution (CLSI), CAMHB; settings: Klebsiella pneumoniae
Experimental: as §1, §2, §3

[13] = tested on: K. pneumoniae NRZ-00535 (VIM-1); assay: MIC, broth microdilution (CLSI), CAMHB; settings: Klebsiella pneumoniae
Experimental: as §1, §2, §3

P. aeruginosa ATCC 10145 = assay: MIC, broth microdilution (CLSI), CAMHB; settings: Pseudomonas aeruginosa; monosubstance; Pa ATCC10145; read-out: MIC
Experimental: as §1, §2, §3

[14] = tested on: P. aeruginosa NRZ-00425 (VIM-1); assay: MIC, broth microdilution (CLSI), CAMHB; settings: Pseudomonas aeruginosa; monosubstance; Pa NRZ00425; read-out: MIC
Experimental: as §1, §2, §3

P. mirabilis ATCC 9240 = assay: MIC, broth microdilution (CLSI), CAMHB; settings: Proteus mirabilis; monosubstance; Pm ATCC9240; read-out: MIC
Experimental: as §1, §2, §3

[15] = tested on: P. mirabilis NRZ-00185 (AmpC, type CMY-2); assay: MIC, broth microdilution (CLSI), CAMHB; settings: Proteus mirabilis
Experimental: as §1, §2, §3

[16] = tested on: Gram-negative test strains (Enterobacteriaceae, non-fermenters); assay: MIC testing, statements on the Gram-negative strain panel
From the text: as §1

[17] = tested on: Gram-positive strains tested; assay: MIC testing, statements on the Gram-positive strain panel; settings: all the test strains except S. aureus NRS-119 and E. faecium UW 3695; read-out: MIC (inhibitory concentration)
From the text: as §1

[18] = monosubstance, Ef ATCC29212, read-out: MIC
[19] = monosubstance, Ef V583, read-out: MIC
[20] = monosubstance, Efc DSMZ2146, read-out: MIC
[21] = monosubstance, Efc UW3695, read-out: MIC
[22] = monosubstance, Sa ATCC29213, read-out: MIC
[23] = monosubstance, Sa ATCC33593, read-out: MIC
[24] = monosubstance, Sa NRS119, read-out: MIC
[25] = monosubstance, Sa VisaMu50, read-out: MIC
[26] = monosubstance, Spn ATCC33400, read-out: MIC
[27] = monosubstance, Spn 19397, read-out: MIC

SMILES: CN[C@H](CC(C)C)C(=O)N[C@H]1C(=O)N[C@@H](CC(N)=O)C(=O)N[C@H]2C(=O)N[C@H]3C(=O)N[C@H](C(=O)N[C@H](C(=O)O)c4cc(O)cc(O)c4-c4cc3ccc4O)[C@H](O)c3ccc(c(Cl)c3)Oc3cc2cc(c3O[C@@H]2O[C@H](CO)[C@@H](O)[C@H](O)[C@H]2O[C@H]2C[C@](C)(N)[C@H](O)[C@H](C)O2)Oc2ccc(cc2Cl)[C@H]1O [vancomycin]
MIC (E. faecalis ATCC 29212; ATCC29212): 1 µg/mL (≈ 0.69 µM)
MIC (E. faecalis V583 (VanB)): 32 µg/mL (≈ 22.1 µM)
MIC (E. faecium DSMZ 2146; DSMZ2146): 0.25 µg/mL (≈ 0.173 µM)
MIC [1]: 0.25 µg/mL (≈ 0.173 µM)
MIC (S. aureus ATCC 29213; ATCC29213): 0.25 µg/mL (≈ 0.173 µM)
MIC [2]: 0.5 µg/mL (≈ 0.345 µM)
MIC [3]: 1 µg/mL (≈ 0.69 µM)
MIC [4]: 2 µg/mL (≈ 1.38 µM)
MIC (S. pneumoniae ATCC 33400; ATCC33400): 0.25 µg/mL (≈ 0.173 µM)
MIC [5]: 0.25 µg/mL (≈ 0.173 µM)
MIC [6]: 0.015 µg/mL (≈ 0.0104 µM)

SMILES: CO/N=C(\C(=O)N[C@@H]1C(=O)N2C(C(=O)O)=C(CSc3nc(=O)c(=O)[nH]n3C)CS[C@H]12)c1csc(N)n1 [ceftriaxone]
MIC (E. faecalis ATCC 29212; [18]): 0.5 µg/mL (≈ 0.902 µM)
MIC (E. faecalis V583 (VanB); [19]): 0.5 µg/mL (≈ 0.902 µM)
MIC (E. faecium DSMZ 2146; [20]): 0.5 µg/mL (≈ 0.902 µM)
MIC [1, 21]: 32 µg/mL (≈ 57.7 µM)
MIC (S. aureus ATCC 29213; [22]): 4 µg/mL (≈ 7.21 µM)
MIC [2, 23]: > 256 µg/mL
MIC [3, 24]: > 256 µg/mL
MIC [4, 25]: 16 µg/mL (≈ 28.9 µM)
MIC (S. pneumoniae ATCC 33400; [26]): 0.0075 µg/mL (≈ 0.0135 µM)
MIC [5, 27]: 4 µg/mL (≈ 7.21 µM)
MIC [6]: 4 µg/mL (≈ 7.21 µM)

MIC (E. faecalis ATCC 29212; [18]): 0.5 µg/mL (≈ 1.25 µM)
MIC (E. faecalis V583 (VanB); [19]): 0.25 µg/mL (≈ 0.623 µM)
MIC (E. faecium DSMZ 2146; [20]): 0.5 µg/mL (≈ 1.25 µM)
MIC [1, 21]: 64 µg/mL (≈ 159 µM)
MIC (S. aureus ATCC 29213; [22]): 0.12 µg/mL (≈ 0.299 µM)
MIC [2, 23]: 0.06 µg/mL (≈ 0.149 µM)
MIC [3, 24]: 8 µg/mL (≈ 19.9 µM)
MIC [4, 25]: 8 µg/mL (≈ 19.9 µM)
MIC (S. pneumoniae ATCC 33400; [26]): 0.25 µg/mL (≈ 0.623 µM)
MIC [5, 27]: 4 µg/mL (≈ 9.96 µM)
SMILES: COc1c(N2C[C@@H]3CCCN[C@@H]3C2)c(F)cc2c(=O)c(C(=O)O)cn(C3CC3)c12 [moxifloxacin]

SMILES: CC(C)(O/N=C(\C(=O)N[C@@H]1C(=O)N2C(C(=O)[O-])=C(C[n+]3ccccc3)CS[C@H]12)c1csc(N)n1)C(=O)O [ceftazidime]
MIC (E. cloacae ATCC 13047): 2 µg/mL (≈ 3.66 µM)
MIC [7]: 4 µg/mL (≈ 7.32 µM)
MIC (E. coli ATCC 25922): 0.03 µg/mL (≈ 0.0549 µM)
MIC [8]: 128 µg/mL (≈ 234 µM)
MIC [9]: > 256 µg/mL
MIC [10]: 32 µg/mL (≈ 58.5 µM)
MIC (K. pneumoniae ATCC 13883): 0.25 µg/mL (≈ 0.457 µM)
MIC [11]: 64 µg/mL (≈ 117 µM)
MIC [12]: > 256 µg/mL
MIC [13]: > 256 µg/mL
MIC (P. aeruginosa ATCC 10145): 2 µg/mL (≈ 3.66 µM)
MIC [14]: 32 µg/mL (≈ 58.5 µM)
MIC (P. mirabilis ATCC 9240): 0.5 µg/mL (≈ 0.915 µM)
MIC [15]: 128 µg/mL (≈ 234 µM)
MIC ([16]; E. coli, K. pneumoniae, and P. mirabilis wild type strains, read-out: MIC (inhibitory concentration)): < 0.5 µg/mL
MIC ([16]; remainder / remaining / all other test strains, as worded for each agent, read-out: MIC): > 2 µg/mL

SMILES: CC(=O)NC[C@H]1CN(c2ccc(N3CCOCC3)c(F)c2)C(=O)O1 [linezolid]
MIC (E. faecalis ATCC 29212; [18]): 4 µg/mL (≈ 11.9 µM)
MIC (E. faecalis V583 (VanB); [19]): 2 µg/mL (≈ 5.93 µM)
MIC (E. faecium DSMZ 2146; [20]): 4 µg/mL (≈ 11.9 µM)
MIC [1, 21]: 16 µg/mL (≈ 47.4 µM)
MIC (S. aureus ATCC 29213; [22]): 2 µg/mL (≈ 5.93 µM)
MIC [2, 23]: 2 µg/mL (≈ 5.93 µM)
MIC [3, 24]: 64 µg/mL (≈ 190 µM)
MIC [4, 25]: 4 µg/mL (≈ 11.9 µM)
MIC (S. pneumoniae ATCC 33400; [26]): 2 µg/mL (≈ 5.93 µM)
MIC [5, 27]: 1 µg/mL (≈ 2.96 µM)
MIC [6]: 2 µg/mL (≈ 5.93 µM)
MIC [17]: < 4 µg/mL
